Where two headings read alike, the source gives them in different places.
Experiments:
H3122 cells (NSCLC) = format: cell-based; details: Homo sapiens
[1] = test system: DFCI76 (L1152R) cells (NSCLC); format: cell-based; details: read-out: IC50 Tumor Cell Line DFCI76 (L1152R)
SRPK1 = SRPK1 (Homo sapiens (Human), UniProt Q96SB4); experiment: SRPK1 inhibitory activity; format: biochemical
SRPK2 = SRPK2 (Homo sapiens (Human), UniProt P78362); experiment: SRPK2 inhibitory activity; format: biochemical
[2] = target: EML4-ALK C1156Y transformed Ba/F3 cells (Homo sapiens, UniProt Q9UM73, C1156Y, cells depend on it); experiment: Ba/F3 dose escalation MTS viability assay; format: cell-based; details: 72 hours
[3] = target: EML4-ALK L1152R transformed Ba/F3 cells (Homo sapiens, UniProt Q9UM73, L1152R, cells depend on it); experiment: Ba/F3 dose escalation MTS viability assay; format: cell-based; details: 72 hours
[4] = target: EML4-ALK G1202R transformed Ba/F3 cells (Homo sapiens, UniProt Q9UM73, G1202R, cells depend on it); experiment: Ba/F3 dose escalation MTS viability assay; format: cell-based; details: 72 hours
[5] = target: EML4-ALK G1269A transformed Ba/F3 cells (Homo sapiens, UniProt Q9UM73, G1269A, cells depend on it); experiment: Ba/F3 dose escalation MTS viability assay; format: cell-based; details: 72 hours
[6] = target: EML4-ALK S1206Y transformed Ba/F3 cells (Homo sapiens, UniProt Q9UM73, S1206Y, cells depend on it); experiment: Ba/F3 dose escalation MTS viability assay; format: cell-based; details: 72 hours
[7] = test system: EML4-ALK wt transformed Ba/F3 cells; experiment: Ba/F3 single point inhibition assay (MTS); format: cell-based; details: single dose 1 μM, 72 hours
[8] = test system: EML4-ALK^G1202R transformed Ba/F3 cells; experiment: Ba/F3 single point inhibition assay (MTS); format: cell-based; details: single dose 1 μM, 72 hours
[9] = target: EML4-ALK^WT transformed Ba/F3 cells (Homo sapiens, UniProt Q9UM73); experiment: Ba/F3 dose escalation MTS viability assay; details: read-out: IC50 wt, 72 hours
[10] = target: EML4-ALK L1196M transformed Ba/F3 cells (Homo sapiens, UniProt Q9UM73, L1196M, cells depend on it); experiment: Ba/F3 dose escalation MTS viability assay; details: read-out: IC50 L1196M, 72 hours
[11] = target: CD74-ROS transduced Ba/F3 cells (Homo sapiens, UniProt P08922); experiment: Ba/F3 proliferation assay; format: cell-based; details: read-out: IC50 Ba/F3 CD74-ROS; Table 6
[12] = target: del19EGFR transduced Ba/F3 cells (Homo sapiens, UniProt P00533, cells depend on it, form not given); experiment: Ba/F3 proliferation assay; format: cell-based; details: read-out: IC50 Ba/F3 del19EGFR; Table 6
[13] = test system: mutant EGFR PC9 cell line; details: in words
panel of 456 kinases = experiment: KINOMESCAN kinase selectivity profiling; format: binding; details: screened at 1 μM
[14] = mouse, in vivo, iv, 2 mg/kg, 8 h

Row | Compound | IC50 (SRPK1) | IC50 (SRPK2) | IC50 [2] | IC50 [3] | IC50 [4] | IC50 [5] | IC50 [6] | Percent viability of untreated control, wt [7] | Percent viability of untreated control, G1202R [8] | IC50 [9] | IC50 [10] | other results
1 | CCc1cc2c(cc1N1CCC(N3CCOCC3)CC1)C(C)(C)c1[nH]c3cc(C#N)ccc3c1C2=O [Alectinib] | 11 nM | 28.2 nM |  |  |  |  |  |  |  |  |  | IC50 (H3122 cells (NSCLC); NCI-H3122, read-out: IC50 Tumor Cell Line H3122): 7 ± 4 nM; IC50 [1]: 26 ± 27 nM
2 | CCc1cc2c(cc1-c1cnoc1)C(C)(C)c1[nH]c3cc(C#N)ccc3c1C2=O [Compound 10, 9-ethyl-8-(isoxazol-4-yl)-6,6-dimethyl-11-oxo-6,11-dihydro-5H-benzo[b]carbazole-3-carbonitrile] | 5.09 nM | 14.5 nM | 116 nM | 345 nM | 80 nM | 186 nM | 728 nM | 2% | 3% | 59 nM | 634 nM | 
3 | Cc1cc(Nc2ncc(Cl)c(Nc3ccccc3S(=O)(=O)C(C)C)n2)c(OC(C)C)cc1C1CCNCC1 [Ceritinib] |  |  |  |  |  |  |  |  |  |  |  | IC50 (H3122 cells (NSCLC); NCI-H3122, Table 6, read-out: IC50 Tumor Cell Line H3122): 13 ± 5 nM
4 | CCc1cc2c(cc1-c1cnn(CC(=O)N(C)C)c1)C(C)(C)c1[nH]c3cc(C#N)ccc3c1C2=O [Compound 6, 2-(4-(3-cyano-9-ethyl-6,6-dimethyl-11-oxo-6,11-dihydro-5H-benzo[b]carbazol-8-yl)-1H-pyrazol-1-yl)-N,N-dimethylacetamide] |  |  |  |  |  |  |  |  |  |  |  | IC50 [11]: 678 ± 109 nM; IC50 [12]: 281 ± 1 nM; inhibition of mutant EGFR PC9 cell line [13]: not inhibited
5 | CCc1cc2c(cc1-c1cnn(CCCN(C)C)c1)C(C)(C)c1[nH]c3cc(C#N)ccc3c1C2=O [Compound 32, 8-(1-(3-(dimethylamino)propyl)-1H-pyrazol-4-yl)-9-ethyl-6,6-dimethyl-11-oxo-6,11-dihydro-5H-benzo[b]carbazole-3-carbonitrile] |  |  |  |  |  |  |  | 0% | 0% |  |  | KINOMESCAN interactions mapped (panel of 456 kinases): 39; Conc. [14]: 80 nM
6 | CCc1cc2c(cc1-c1cncnc1)C(C)(C)c1[nH]c3cc(C#N)ccc3c1C2=O [Compound 16, 9-ethyl-6,6-dimethyl-11-oxo-8-(pyrimidin-5-yl)-6,11-dihydro-5H-benzo[b]carbazole-3-carbonitrile] | 2.53 nM | 12.5 nM |  |  |  |  |  | 3% | 4% |  |  | 

Now from value to compound, other results behind:

Row | IC50 (SRPK1) | IC50 (SRPK2) | Compound | IC50 [2] | IC50 [3] | IC50 [4] | IC50 [5] | IC50 [6] | Percent viability of untreated control, wt [7] | Percent viability of untreated control, G1202R [8] | IC50 [9] | IC50 [10] | other results
7 | 1.91 nM | 6.6 nM | CCc1cc2c(cc1-c1cnn(CCN(C)C)c1)C(C)(C)c1[nH]c3cc(C#N)ccc3c1C2=O [Compound 31, 8-(1-(2-(dimethylamino)ethyl)-1H-pyrazol-4-yl)-9-ethyl-6,6-dimethyl-11-oxo-6,11-dihydro-5H-benzo[b]carbazole-3-carbonitrile] | 24 nM | 548 nM | 8 nM | 11 nM | 6 nM | 1% | 1% | 2 nM | 80 nM | 
8 | > 1000 nM |  | CCc1cc2c(cc1N1CCC(N(C)C)CC1)C(C)(C)c1[nH]c3cc(C#N)ccc3c1C2=O [Compound 17, 8-(4-(dimethylamino)piperidin-1-yl)-9-ethyl-6,6-dimethyl-11-oxo-6,11-dihydro-5H-benzo[b]carbazole-3-carbonitrile] | 2 nM | 695 nM | 478 nM | 3 nM | 2 nM | 2% | 9% | 2 nM | 10 nM | 
9 | 0.884 nM | 7.46 nM | CCc1cc2c(cc1-c1cnn[nH]1)C(C)(C)c1[nH]c3cc(C#N)ccc3c1C2=O [Compound 13, 9-ethyl-6,6-dimethyl-11-oxo-8-(1H-1,2,3-triazol-5-yl)-6,11-dihydro-5H-benzo[b]carbazole-3-carbonitrile] | 177 nM | 345 nM | 214 nM | 256 nM | 1610 nM | 6% | 7% | 115 nM | 629 nM | 
10 | 4.75 nM | 23.6 nM | CCc1cc2c(cc1-c1cnn(C(=O)N(C)C)c1)C(C)(C)c1[nH]c3cc(C#N)ccc3c1C2=O [Compound 36, 4-(3-cyano-9-ethyl-6,6-dimethyl-11-oxo-6,11-dihydro-5H-benzo[b]carbazol-8-yl)-N,N-dimethyl-1H-pyrazole-1-carboxamide] |  |  |  |  |  | 0% | 0% |  |  | 
